The record followed here is patent publication US20130273649A1, “Culture medium for pluripotent stem cells” (UNIVERSITY OF SOUTHERN CALIFORNIA, priority 2012, published 2013).

One assay deals with Axin2. Kind of assay: Western blot of Axin2 in human ESCs. It is filed as cell-based. To be noted: human ESCs treated 24 h. (A western blot detects proteins with antibodies after separation by electrophoresis.)
The subject of the next assay is β-catenin. Description: Western blot of nuclear β-catenin in mouse EpiSCs. To be noted: 3 μM CHIR 12 h. The class given is cell-based. As for the experimental part: (A) Western blot analysis of cytoplasmic, nuclear and total β-catenin levels in CD1 mouse EpiSCs overexpressing Flag-tagged Axin1 or Axin2. Cells were either untreated or treated with 3 μM CHIR for 12 h. (B) Immunostaining of CD1 mouse EpiSCs overexpressing Flag-tagged Axin2 (C) Co-IP of Flag or β-catenin in CD1 mouse EpiSCs overexpressing empty vector or Flag-tagged Axin2. Cells were treated with 3 μM CHIR for 12 h (D) Immunostaining of ΔNβ-catenin-ERT2-overexpressing CD1 mouse EpiSCs before and after treatment with 1 μM 4-OHT. (E). Western blot analysis of cytoplasmic and nuclear ΔNβ-catenin-ERT2 levels after treatment with 1 μM 4-OHT for 24 h. (F). Phase contrast image of ΔNβ-catenin-ERT2-EpiSCs after 25 passages in basal medium only. (G) qRT-PCR analysis of Oct4, Nanog and Fgf5 mRNA levels in ΔNβ-catenin-ERT2-EpiSCs maintained in basal medium or basal medium plus FGF2/activin for 11 passages. Data represent mean±s.d. of three biological replicates. (H) Phase contrast image of ΔNβ-catenin-ERT2-EpiSCs after treatment with 1 μM 4-OHT for 24 h. […]
Next, we investigated how β-catenin mediates EpiSC self-renewal. […] To determine whether nuclear translocation of β-catenin is affected by Axin, we analyzed β-catenin protein levels in whole-cell, cytoplasmic and nuclear fractions before and after CHIR treatment. […] In Axin2-EpiSCs, Axin2 expression was mainly detected in the cytoplasm (FIG. 6B). […]

As to `Cc1c[nH]c(-c2cnc(NCCNc3ccc(C#N)cn3)nc2-c2ccc(Cl)cc2Cl)n1` [CHIR99021, 6-((2-((4-(2,4-Dichlorophenyl)-5-(4-methyl-1H-imidazol-2-yl)pyrimidin-2-yl)amino)ethyl)amino)nicotinonitrile], the “amount of Axin2 protein” value in the assay with Axin2 is “induced the expression of Axin2”. The “nuclear β-catenin protein level” value in the assay with β-catenin (Axin2-EpiSCs) is given as “barely detectable”; with β-catenin (vector-EpiSCs and Axin1-EpiSCs), “dramatically increased”.
